Legend:
Test in all cases: combination Emax (second highest fraction inhibited in the dose matrix, 72 h); higher = more inhibition; extreme values may be limits of the assay
[1] = tested on: SK-MM-2 (Plasma Cell Myeloma)
Method in brief: (§1)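 Bliss excess equals the observed combination effect minus the expected value EA + EB − EA·EB, where EA and EB are the effects of each agent alone. Combination Emax is the second-highest inhibition within the matrix. Inhibition was scaled from CellTiter-Glo 2.0 luminescence, with 0 set by vehicle wells and 1 by blank wells, after 72 hours of two-drug dosing of cells plated in 1536-well plates.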

[2] = tested on: NCI-H196 (Small Cell Lung Carcinoma)
Method in brief: as §1

[3] = tested on: OV-90 (Ovarian Carcinoma)
Method in brief: as §1

[4] = tested on: CHL-1 (Melanoma)
Method in brief: as §1

[5] = tested on: PC-14 (Lung Adenocarcinoma)
Method in brief: as §1

[6] = tested on: CML-T1 (Chronic Myelogenous Leukemia)
Method in brief: as §1

[7] = tested on: OCI-AML5 (Acute Myeloid Leukemia)
Method in brief: as §1

[8] = tested on: ES-2 (Ovarian Carcinoma)
Method in brief: as §1

[9] = tested on: NCI-H1623 (Lung Adenocarcinoma)
Method in brief: as §1

[10] = tested on: AsPC-1 (Pancreatic Carcinoma)
Method in brief: as §1

[11] = tested on: KYM-1 (Rhabdomyosarcoma)
Method in brief: as §1

[12] = tested on: FLO-1 (Esophageal Adenocarcinoma)
Method in brief: as §1

[13] = tested on: NCI-H1155 (Non-Small Cell Lung Carcinoma)
Method in brief: as §1

[14] = tested on: COLO-684 (Endometrial Carcinoma)
Method in brief: as §1

[15] = tested on: HuO-3N1 (Osteosarcoma)
Method in brief: as §1

[16] = tested on: NCI-H1755 (Lung Adenocarcinoma)
Method in brief: as §1

[17] = tested on: HSC-3 (Oral Cavity Carcinoma)
Method in brief: as §1

[18] = tested on: RT4 (Bladder Carcinoma)
Method in brief: as §1

[19] = tested on: OVTOKO (Ovarian Carcinoma)
Method in brief: as §1

[20] = tested on: SW684 (Other Solid Carcinomas)
Method in brief: as §1

Compound | combination Emax [1] | combination Emax [2] | combination Emax [3] | combination Emax [4] | combination Emax [5] | combination Emax [6] | combination Emax [7] | combination Emax [8] | combination Emax [9] | combination Emax [10] | combination Emax [11] | combination Emax [12] | combination Emax [13] | combination Emax [14] | combination Emax [15] | combination Emax [16] | combination Emax [17] | combination Emax [18] | combination Emax [19] | combination Emax [20]
Cc1c2c(nn1C)CSCc1cc(n(C)n1)CSc1cc(c3ccccc3c1)OCCCc1c(C(=O)O)n(C)c3c-2c(Cl)ccc13 [AZD5991] + C1CN(CCC1(C(=O)N[C@@H](CCO)C2=CC=C(C=C2)Cl)N)C3=NC=NC4=C3C=CN4 [Capivasertib] (first compound max 1 µM, 7x7, partner max 3 µM) | 0.325 | 0.196 | 0.241 | 0.275 | 0.26 | 0.0638 | 1 | 0.196 | 1 | 0.161 | 0.466 | 0.347 | 0.525 | 0.599 | 0.881 | 0.338 | 0.728 | 0.22 | 0.367 | 0.402
CC1(C)CCC(CN2CCN(c3ccc(C(=O)NS(=O)(=O)c4ccc(NCC5CCOCC5)c([N+](=O)[O-])c4)c(Oc4cnc5[nH]ccc5c4)c3)CC2)=C(c2ccc(Cl)cc2)C1 [Venetoclax] + COc1cc(Nc2ncc3c(n2)-c2ccc(Cl)cc2C(c2c(F)cccc2OC)=NC3)ccc1C(=O)O [Alisertib] (first compound max 1 µM, 7x7, partner max 10 µM) | 1 | 0.113 | 0.248 | 0.778 | 0.741 | 0.965 | 1 | 0.983 | 0.391 | 0.136 | 0.21 | 0.514 | 0.809 | 0.264 | 0.372 | 0.66 | 0.61 | 0.791 | 0.484 | 0.253
COc1cc2ncnc(Nc3ccc(F)c(Cl)c3)c2cc1OCCCN1CCOCC1 [Gefitinib] + CC(C)n1c(=O)n(C)c2cnc3cc(F)c(-c4ccc(OCCCN5CCCCC5)nc4)cc3c21 [AZD1390] (first compound max 10 µM, 7x7, partner max 0.3 µM) | 0.151 | 0.0162 | 0.12 | 0.409 | 0.752 | 0.148 | 0.145 | 0.41 | 0.904 | 0.13 | 0.224 | 0.357 | 0.0815 | 0.0995 | 0.0711 | 0.264 | 0.623 | 0.128 | 0.428 | 0.136
CC(=O)Nc1cccc(-n2c(=O)n(C3CC3)c(=O)c3c(Nc4ccc(I)cc4F)n(C)c(=O)c(C)c32)c1 [Trametinib] + Cc1nc(-c2cn3c(n2)-c2ccc(-c4cnn(C(C)(C)C(N)=O)c4)cc2OCC3)n(C(C)C)n1 [Taselisib] (first compound max 1 µM, 7x7, partner max 10 µM) | 0.43 | 0.376 | 0.834 | 0.638 | 1 | 0.465 | 1 | 0.725 | 1 | 0.608 | 0.4 | 0.665 | 0.348 | 0.57 | 0.461 | 0.978 | 0.986 | 0.734 | 0.795 | 0.929
COc1nnc2ccc(N3CCC(c4ccc(OCCN5CCN(C)C(=O)[C@H]5C)cc4)CC3)nn12 [AZD5153] + Cc1c2c(nn1C)CSCc1cc(n(C)n1)CSc1cc(c3ccccc3c1)OCCCc1c(C(=O)O)n(C)c3c-2c(Cl)ccc13 [AZD5991] (first compound max 1 µM, 7x7, partner max 1 µM) | 0.93 | 0.307 | 0.365 | 0.985 | 0.441 | 0.523 | 0.997 | 0.654 | 1 | 0.258 | 1 | 0.717 | 0.646 | 0.67 | 0.628 | 0.446 | 0.778 | 0.911 | 0.531 | 0.46
COc1nnc2ccc(N3CCC(c4ccc(OCCN5CCN(C)C(=O)[C@H]5C)cc4)CC3)nn12 [AZD5153] + C=CCn1c(=O)c2cnc(Nc3ccc(N4CCN(C)CC4)cc3)nc2n1-c1cccc(C(C)(C)O)n1 [AZD1775] (first compound max 1 µM, partner max 1 µM) | 0.878 | 0.473 | 0.378 | 0.624 | 0.883 | 0.945 | 0.905 | 0.747 | 0.59 | 0.381 | 0.901 | 0.888 | 0.814 | 0.744 | 0.466 | 0.8 | 0.795 | 0.571 | 0.622 | 0.452

From the supplement of paper PMC11061612
